In patent US20240285624A1, “ERK1/2 OR SHP2 INHIBITORS AND FLT3 INHIBITORS COMBINATION THERAPY” (Erasca, Inc., priority 2021, published 2024):

Key:
[1] = tested on: ERK1/2 phosphorylation in MOLM-14 cells; assay: Western blot of phosphorylated ERK1/2; format: cell-based; details: compound 2 alone, 4 hours, relative to DMSO treated control cells
Method: (§1) Western blotting: Cells were lysed on ice for 10 minutes with Thermo Fisher RIPA lysis buffer with protease and phosphatase inhibitors. The cells were centrifuged at 4° for 10 minutes with a microcentrifuge. The supernatant was transferred to pre-chilled microcentrifuge tube and protein concentration of the lysate was measured using BCA method. Cell lysate supematants of equal-amount of proteins were used for immunoblotting.
(§2) FIG. 3A is a Western blot showing compound 2 and gilteritinib combination induced downregulation of ERK1/2 phosphorylation in MOLM-14 cells. FIG. 3B is a bar plot quantifying the results of […]. The cell lines, MOLM14 and MV-4-11 were split onto a 6 well plate and treated with compound 2 and gilteritinib alone, and in combination as indicated (FIGS. 3A/B and 4A/B). After 4 hours treatment, cells were lysed and immunoblotted for phosphorylated ERK1/2. […] The phosphorylated ERK1/2 bands were quantified by using Bio-Rad Image Lab software and normalized by total ERK.

[2] = tested on: ERK1/2 phosphorylation in MV-4-11 cells; assay: Western blot of phosphorylated ERK1/2; format: cell-based; details: compound 2 alone, 4 hours, relative to DMSO treated control cells
Method: as §1, §2
FIG. 4A is a Western blot showing compound 2 and gilteritinib combination induced downregulation of ERK1/2 phosphorylation in MV-4-11 cells. FIG. 4B is a bar plot quantifying the results of […]. […] The phosphorylated ERK1/2 bands were quantified by using Bio-Rad Image Lab software and normalized by total ERK.

[3] = tested on: MOLM-13 subcutaneous CDX model; assay: In vivo tumor growth, FLT3-ITD mutated AML subcutaneous CDX model MOLM-13; parameters: species or system Balb/c nude mice; details: compound 2 15 or 30 mg/kg PO QD; groups terminated on treatment day 12
Method: The vehicle/control article, 100 mM acetic acid in deionized water, with pH adjustment to 4.8-5.0, was prepared and stored under ambient conditions throughout the 42-day administration in mice.
The test article, compound 2, was freshly prepared in vehicle of 100 mM acetic buffer weekly and stored under ambient conditions. The combination agent gilteritinib was prepared weekly in vehicle of 0.5% Methyl Cellulose & 0.1% Tween 80 Solution weekly and stored under ambient conditions.
Female Balb/c nude mice were between 6-8 weeks of age at the time of implantation. Mice were hosted in a special pathogen-free (SPF) environment of the vivarium facility and acclimated to their new environment for at least 3 days prior to initiation of any experiments according to IACUC protocol.
MOLM-13 was AML cell line that harbored a FLT3-ITD mutation. MOLM-13 cells were cultured in medium containing RPMI1640 plus 10% Fetal Bovine Serum (FBS) and 1% Antibiotic-Antimycotic (AA), at 37° C. in an atmosphere of 5% CO2 in air. The medium was renewed every 2 to 3 days and tumor cells were routinely sub-cultured at a confluence of 80-90% by trypsin-EDTA. Cells growing in an exponential growth phase were harvested and counted for inoculation. […] Animal health and tumor growth were monitored daily. Tumor volume was measured twice a week by caliper when tumors were palpable and measurable. […]

COCOC[C@H]1C[C@H]2COc3c(Sc4cnc(N5CCC6(CC5)CO[C@@H](C)[C@H]6N)c(CO)n4)ccnc3N2C1 [compound 2, (3-((3S,4S)-4-amino-3-methyl-2-oxa-8-azaspiro[4.5]decan-8-yl)-6-(((6aS,8S)-8-((methoxymethoxy)methyl)-6a,7,8,9-tetrahydro-6H-pyrido[3,2-b]pyrrolo[1,2-d][1,4]oxazin-4-yl)thio)pyrazin-2-yl)methanol]
inhibition of ERK1/2 phosphorylation (immunoblot) [1]: about 30% | inhibition of ERK1/2 phosphorylation (immunoblot) [2]: about 50% | tumor growth under monotherapy (group termination) [3]: rapid tumor growth
